Data taken from US6630316B1, “Method for measurement of lymphocyte function” (priority 1996, dated 2003).

Key:
Assay type in all cases: cell-based
[1] = test system: T lymphocytes separated by CD4, CD69, or CD3; assay: ATP response after PHA stimulation of T lymphocytes separated by CD4, CD69 or CD3; conditions: PHA (1%) for 24, 48, 72 or 96 hours; separation by CD3, CD4 or CD69
[2] = test system: CD4 positive T lymphocytes; assay: ATP (luciferin:luciferase) response of PBMC separated using CD4 antibody and goat anti-mouse paramagnetic beads; conditions: PHA 1 ug/ml, 24 hours, CD4 separation, unstimulated 8768
[3] = test system: T lymphocytes (CD4) in whole blood; assay: T cell response to mitogens in a whole blood sample (CD4 separation, ATP luminescence); conditions: whole blood diluted 1:5, incubated overnight at 37 C; PHA at 1%, IL-2 at 1000 U/ml; control 458,451
[4] = test system: CD8 positive T lymphocytes

Substance: phytohemagglutinin [PHA]
- relative light units from stimulated cells versus unstimulated cells [1]: greater than those from the unstimulated cells
- Relative Light Units [2]: 38903 Relative Light Units
- Relative Light Units [3]: 5,836,682 Relative Light Units
- stimulation index [4]: > 10
